ChEMBL document CHEMBL5108084, “Discovery of Novel Pyrazolylpyridine Derivatives for 20-Hydroxyeicosatetraenoic Acid Synthase Inhibitors with Selective CYP4A11/4F2 Inhibition” (J Med Chem, 2022)

Assays:
CYP2B6 = target: T1, CYP2B6 (Homo sapiens, UniProt P20813); assay: Inhibition of CYP2B6 in human liver microsomes at 10 uM using bupropion as substrate preincubated for 5 mins followed by NADPH generating system addition and measured after 5 to 10 mins by LC-MS/MS analysis; format: ADME, Microsome; details: probe bupropion, time 10-15 min
T1 sequence (P20813 whole entry): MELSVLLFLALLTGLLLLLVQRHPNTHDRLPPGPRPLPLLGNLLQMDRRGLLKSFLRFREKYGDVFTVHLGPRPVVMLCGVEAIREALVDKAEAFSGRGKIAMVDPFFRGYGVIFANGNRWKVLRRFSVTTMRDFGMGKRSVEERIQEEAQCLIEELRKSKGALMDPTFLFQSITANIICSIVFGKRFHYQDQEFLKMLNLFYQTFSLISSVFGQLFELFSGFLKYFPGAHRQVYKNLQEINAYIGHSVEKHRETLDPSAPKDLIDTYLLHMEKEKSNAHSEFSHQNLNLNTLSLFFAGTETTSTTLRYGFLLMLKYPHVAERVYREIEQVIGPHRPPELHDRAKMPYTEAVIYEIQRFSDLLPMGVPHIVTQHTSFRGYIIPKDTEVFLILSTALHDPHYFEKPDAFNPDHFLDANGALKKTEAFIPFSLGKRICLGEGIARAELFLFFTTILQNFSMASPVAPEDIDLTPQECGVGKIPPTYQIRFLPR

CYP2C8 = target: T2, CYP2C8 (Homo sapiens, UniProt P10632); assay: Inhibition of CYP2C8 in human liver microsomes at 10 uM using amodiaquine as substrate preincubated for 5 mins followed by NADPH generating system addition and measured after 5 to 10 mins by LC-MS/MS analysis; format: ADME, Microsome; details: probe amodiaquine, time 10-15 min
T2 sequence (P10632 whole entry): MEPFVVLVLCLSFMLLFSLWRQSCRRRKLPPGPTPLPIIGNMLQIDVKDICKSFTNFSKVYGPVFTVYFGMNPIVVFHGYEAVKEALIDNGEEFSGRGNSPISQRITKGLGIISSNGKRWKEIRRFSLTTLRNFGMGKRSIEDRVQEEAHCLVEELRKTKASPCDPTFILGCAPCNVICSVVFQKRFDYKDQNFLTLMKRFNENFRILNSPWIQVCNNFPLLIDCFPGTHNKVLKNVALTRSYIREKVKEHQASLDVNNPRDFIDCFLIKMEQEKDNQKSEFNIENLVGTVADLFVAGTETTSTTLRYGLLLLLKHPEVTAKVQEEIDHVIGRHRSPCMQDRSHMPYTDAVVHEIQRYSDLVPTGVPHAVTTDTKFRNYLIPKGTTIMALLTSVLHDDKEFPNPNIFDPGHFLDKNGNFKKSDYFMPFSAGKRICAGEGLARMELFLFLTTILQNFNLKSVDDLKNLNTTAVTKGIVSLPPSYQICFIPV

CYP2C9 = CYP2C9 (Homo sapiens, UniProt P11712); assay: Inhibition of CYP2C9 in human liver microsomes at 10 uM using diclofenac as substrate preincubated for 5 mins followed by NADPH generating system addition and measured after 5 to 10 mins by LC-MS/MS analysis; format: ADME, Microsome; details: probe diclofenac, time 10-15 min
CYP2C19 = CYP2C19 (Homo sapiens, UniProt P33261); assay: Inhibition of CYP2C19 in human liver microsomes at 10 uM using mephenytoin as substrate preincubated for 5 mins followed by NADPH generating system addition and measured after 5 to 10 mins by LC-MS/MS analysis; format: ADME, Microsome; details: probe mephenytoin, time 10-15 min
[1] = Volume of distribution at steady state in Balb/cA mouse at 0.5 mg/kg, iv measured for 24 hrs by LC-MS/MS analysis; format: ADME, organism-based; details: in vivo
[2] = Clearance in Sprague-Dawley rat at 1 mg/kg, iv measured for 24 hrs by LC-MS/MS analysis; format: ADME, organism-based; details: in vivo
[3] = Half life in Sprague-Dawley rat at 1 mg/kg, iv measured for 24 hrs by LC-MS/MS analysis; format: ADME, organism-based; details: in vivo
[4] = Cmax in Sprague-Dawley rat at 1 mg/kg, po measured for 24 hrs by LC-MS/MS analysis; format: ADME, organism-based; set-up: dose 1 mg/kg, time 24 hrs, route po; details: in vivo
[5] = Half life in Sprague-Dawley rat at 1 mg/kg, po measured for 24 hrs by LC-MS/MS analysis; format: ADME, organism-based; details: in vivo
[6] = In vivo inhibition of CYP4A11/4F2 in Sprague-Dawley rat assessed as reduction in 20-HETE levels in kidney at 0.3 mg/kg, po measured after 8 hrs by LC-MS/MS analysis; format: functional

Sequence of CYP2C9 (P11712 whole entry): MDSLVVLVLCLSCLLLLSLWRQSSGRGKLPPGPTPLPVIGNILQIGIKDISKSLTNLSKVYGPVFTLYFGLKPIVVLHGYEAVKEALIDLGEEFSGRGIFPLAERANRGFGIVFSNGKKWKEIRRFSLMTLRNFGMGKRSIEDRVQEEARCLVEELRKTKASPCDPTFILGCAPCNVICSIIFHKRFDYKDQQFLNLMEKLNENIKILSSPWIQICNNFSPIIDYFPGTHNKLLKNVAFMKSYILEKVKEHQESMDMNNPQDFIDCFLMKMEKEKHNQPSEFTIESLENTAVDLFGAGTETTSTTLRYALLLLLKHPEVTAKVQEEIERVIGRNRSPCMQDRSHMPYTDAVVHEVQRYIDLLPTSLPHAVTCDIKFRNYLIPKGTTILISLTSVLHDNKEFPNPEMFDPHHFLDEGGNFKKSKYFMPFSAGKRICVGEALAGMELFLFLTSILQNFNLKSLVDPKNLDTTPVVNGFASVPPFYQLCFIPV
Sequence of CYP2C19 (P33261 whole entry): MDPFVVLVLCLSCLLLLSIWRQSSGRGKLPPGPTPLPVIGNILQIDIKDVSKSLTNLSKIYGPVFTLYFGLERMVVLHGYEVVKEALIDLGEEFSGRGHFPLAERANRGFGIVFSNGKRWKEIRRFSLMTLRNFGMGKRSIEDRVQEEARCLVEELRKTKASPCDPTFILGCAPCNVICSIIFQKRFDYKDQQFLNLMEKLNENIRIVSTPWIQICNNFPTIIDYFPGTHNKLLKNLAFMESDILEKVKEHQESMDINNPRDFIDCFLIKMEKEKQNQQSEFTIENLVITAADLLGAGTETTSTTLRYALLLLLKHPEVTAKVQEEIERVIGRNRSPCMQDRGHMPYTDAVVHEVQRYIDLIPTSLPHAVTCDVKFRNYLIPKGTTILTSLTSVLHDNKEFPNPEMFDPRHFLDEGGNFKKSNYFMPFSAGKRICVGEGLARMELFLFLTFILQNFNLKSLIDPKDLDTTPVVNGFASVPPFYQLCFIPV

inhibition at 10 µM (CYP2B6): -5.8% | inhibition at 10 µM (CYP2C8): 1.5% | inhibition at 10 µM (CYP2C9): -18% | inhibition at 10 µM (CYP2C19): -6.4% | Vdss [1]: 1.15 L/kg | clearance [2]: 3.77 mL/min/kg | half-life [3]: 3.01 h | Cmax [4]: 623 ng/mL | half-life [5]: 3.03 h
Structure (SMILES): CC(=O)N1CCC(COc2ccc(-c3ccn[nH]3)nc2)CC1
inhibition in vivo at 0.3 mg/kg [6]: 76%
